Test results from ChEMBL document CHEMBL1201862, “PubChem BioAssay data set” (2004).
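All cell lines were grown in 96-well plates and treated with compound for 48 hours. Here, GI50 denotes the concentration required for 50% inhibition of growth.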 Active and inactive are the calls of the source. Cut-off read from the data, not from the text of the source: active = GI50 up to about 1.1 µM and inactive = higher.

Columns and labels:
Assay in all cases: growth of human tumour cells (NCI), 48 h
A498 = tested on: A498
A549 = tested on: A549
DU-145 = tested on: DU-145
HL-60 = tested on: HL-60
HT-29 = tested on: HT-29
Hs-578T = tested on: Hs-578T
NCI-H460 = tested on: NCI-H460
OVCAR-3 = tested on: OVCAR-3
RXF 393 = tested on: RXF 393
SF-268 = tested on: SF-268
SF-295 = tested on: SF-295
SK-MEL-28 = tested on: SK-MEL-28
SK-MEL-2 = tested on: SK-MEL-2
SN12C = tested on: SN12C
SNB-75 = tested on: SNB-75
SR = tested on: SR
SW-620 = tested on: SW-620
TK-10 = tested on: TK-10
UACC-257 = tested on: UACC-257
UO-31 = tested on: UO-31

Compound | GI50 (A498) | GI50 (A549) | GI50 (DU-145) | GI50 (HL-60) | GI50 (HT-29) | GI50 (Hs-578T) | GI50 (NCI-H460) | GI50 (OVCAR-3) | GI50 (RXF 393) | GI50 (SF-268) | GI50 (SF-295) | GI50 (SK-MEL-28) | GI50 (SK-MEL-2) | GI50 (SN12C) | GI50 (SNB-75) | GI50 (SR) | GI50 (SW-620) | GI50 (TK-10) | GI50 (UACC-257) | GI50 (UO-31)
NCCN1CC2CCC(CC2)C1 | > 10 µM (inactive) | > 10 µM (inactive) | > 10 µM (inactive) | > 10 µM (inactive) | > 10 µM (inactive) | > 10 µM (inactive) | > 10 µM (inactive) | > 10 µM (inactive) | > 10 µM (inactive) | > 10 µM (inactive) | > 10 µM (inactive) | > 10 µM (inactive) | > 10 µM (inactive) | > 10 µM (inactive) | > 10 µM (inactive) | > 10 µM (inactive) | > 10 µM (inactive) | > 10 µM (inactive) | > 10 µM (inactive) | > 10 µM (inactive)
COc1ccc(CNc2nc(NCc3ccc(OC)cc3)nc(N3CCOCC3)n2)cc1 | 11 µM (inactive) | 7.13 µM (inactive) | 15.1 µM (inactive) | 2.74 µM (inactive) | 2.79 µM (inactive) | 4.23 µM (inactive) | 4.23 µM (inactive) | 2.44 µM (inactive) | > 100 µM (inactive) | – | 2.77 µM (inactive) | 40.2 µM (inactive) | > 100 µM (inactive) | 5.37 µM (inactive) | 5.51 µM (inactive) | 2.79 µM (inactive) | 4.25 µM (inactive) | 3.4 µM (inactive) | 5.22 µM (inactive) | 62.8 µM (inactive)
Cc1ccc(C)c2c1C/C(=C\c1ccccc1C(=O)O)C2=O | > 100 µM (inactive) | 90.8 µM (inactive) | 97.3 µM (inactive) | 40.9 µM (inactive) | > 100 µM (inactive) | > 100 µM (inactive) | > 100 µM (inactive) | 54.2 µM (inactive) | > 100 µM (inactive) | 89.3 µM (inactive) | > 100 µM (inactive) | > 100 µM (inactive) | – | > 100 µM (inactive) | > 100 µM (inactive) | 36.1 µM (inactive) | > 100 µM (inactive) | > 100 µM (inactive) | > 100 µM (inactive) | > 100 µM (inactive)
FC(F)(F)c1cccc(-c2nc3ccccc3c3c2[C@@]2(N4CCCC4)CCCC[C@@H]32)c1 | 31.2 µM (inactive) | 31.7 µM (inactive) | 51.5 µM (inactive) | 25.8 µM (inactive) | 29.1 µM (inactive) | 43.6 µM (inactive) | 28.1 µM (inactive) | 38.9 µM (inactive) | 38.1 µM (inactive) | 33.3 µM (inactive) | 26.2 µM (inactive) | – | 17.8 µM (inactive) | 40.4 µM (inactive) | 30.1 µM (inactive) | 40.9 µM (inactive) | 36.2 µM (inactive) | 30.3 µM (inactive) | 44.9 µM (inactive) | 18 µM (inactive)
CN(C)c1ccc2oc(=O)c3ccccc3c2c1 | 34.8 µM (inactive) | > 100 µM (inactive) | > 100 µM (inactive) | > 100 µM (inactive) | > 100 µM (inactive) | 31.7 µM (inactive) | > 100 µM (inactive) | > 100 µM (inactive) | 31.5 µM (inactive) | 28.6 µM (inactive) | 28.8 µM (inactive) | > 100 µM (inactive) | 33.7 µM (inactive) | > 100 µM (inactive) | 27.5 µM (inactive) | > 100 µM (inactive) | > 100 µM (inactive) | 39.7 µM (inactive) | > 100 µM (inactive) | –
CCOC(=O)/C(=C/NC(=S)Nc1c(CC)cccc1C(C)(C)C)C(=O)c1ccccc1 | > 100 µM (inactive) | > 100 µM (inactive) | > 100 µM (inactive) | 59.3 µM (inactive) | > 100 µM (inactive) | 13.2 µM (inactive) | 10 µM (inactive) | – | > 100 µM (inactive) | > 100 µM (inactive) | > 100 µM (inactive) | > 100 µM (inactive) | > 100 µM (inactive) | > 100 µM (inactive) | 29.3 µM (inactive) | > 100 µM (inactive) | > 100 µM (inactive) | – | > 100 µM (inactive) | 14.7 µM (inactive)
CCCOc1ccc(-c2nc(-c3ccc(/N=C/c4ccc(N(CCOS(C)(=O)=O)CCOS(C)(=O)=O)cc4C)cc3)cs2)cc1 | 7.5 µM (inactive) | 4.59 µM (inactive) | 3.16 µM (inactive) | 5.05 µM (inactive) | 17.9 µM (inactive) | 29.3 µM (inactive) | 0.286 µM (active) | 18.2 µM (inactive) | 6.08 µM (inactive) | 11.5 µM (inactive) | 3.73 µM (inactive) | 67.9 µM (inactive) | 24.5 µM (inactive) | 16.8 µM (inactive) | 2.78 µM (inactive) | 3.85 µM (inactive) | 25.7 µM (inactive) | 18.8 µM (inactive) | 38 µM (inactive) | 11.7 µM (inactive)
